Measured values reported in patent US20240158446A1, “CYCLIC COMPOUND HAVING SELECTIVE INHIBITORY ACTION ON KRAS OVER HRAS AND NRAS” (CHUGAI SEIYAKU KABUSHIKI KAISHA, priority 2021, published 2024).
*1 amine or outer side, *2 acyl side, *3 side chain or, on linkers, in order; H or OH if unused. Where a SMILES comes first, the peptide text is derived from it. Bridges are numbered along the chain shown (N, C = ends). [ ]: non-standard residue; d: D form. The star is where a group is joined. hPhe(3-Cl-4-CF3) = N[C@@H](CCc1ccc(C(F)(F)F)c(Cl)c1)C(=O)O; NPrPhe(4-CF3) = CCCN[C@@H](Cc1ccc(C(F)(F)F)cc1)C(=O)O; NPrAsp = CCCN([C@@H](CC(=O)[*:3])C(=O)[*:2])[*:1]; NEtAsp = CCN([C@@H](CC(=O)[*:3])C(=O)[*:2])[*:1]; NMeGly(cPent) = CN[C@H](C(=O)O)C1CCCC1; NMeL = CN[C@@H](CC(C)C)C(=O)O; NMeNva = CCC[C@H](NC)C(=O)O; Morpholide = C1CN(*)CCO1; Ac5c = NC1(C(=O)O)CCCC1; Ac4c = NC1(C(=O)O)CCC1; Sar = CNCC(=O)O

What was measured:
[1] = biological target: GDP-bound HRAS wild-type protein (Homo sapiens, UniProt P01112); experiment: Binding to HRAS by surface plasmon resonance (SPR), Single Cycle Kinetics; details: ratio of KD for GDP-bound HRAS wild-type protein to KD for KRAS, SPR
GDP-bound HRAS wild-type protein, sequence (P01112 whole entry): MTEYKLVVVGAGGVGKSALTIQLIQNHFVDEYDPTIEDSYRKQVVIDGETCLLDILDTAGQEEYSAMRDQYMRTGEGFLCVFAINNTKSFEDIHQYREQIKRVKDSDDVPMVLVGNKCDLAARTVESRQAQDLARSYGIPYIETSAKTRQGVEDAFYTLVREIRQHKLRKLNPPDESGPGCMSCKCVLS

[2] = biological target: GDP-bound NRAS wild-type protein (Homo sapiens, UniProt P01111); experiment: Binding to NRAS by surface plasmon resonance (SPR), Single Cycle Kinetics; details: ratio of KD for GDP-bound NRAS wild-type protein to KD for KRAS, SPR
GDP-bound NRAS wild-type protein, sequence (P01111 whole entry): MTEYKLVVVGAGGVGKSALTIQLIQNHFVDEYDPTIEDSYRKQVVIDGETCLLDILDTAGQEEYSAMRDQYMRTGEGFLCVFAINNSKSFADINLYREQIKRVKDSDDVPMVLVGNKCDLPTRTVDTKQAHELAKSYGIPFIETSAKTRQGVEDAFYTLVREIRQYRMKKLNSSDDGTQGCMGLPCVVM

[3] = biological target: GDP-bound KRAS wild-type protein (Homo sapiens, UniProt P01116); experiment: Binding to KRAS by surface plasmon resonance (SPR), Single Cycle Kinetics; details: SPR, Single Cycle Kinetics, GDP-bound KRAS wild-type protein; read-out: KRAS KD
GDP-bound KRAS wild-type protein, sequence (P01116 whole entry): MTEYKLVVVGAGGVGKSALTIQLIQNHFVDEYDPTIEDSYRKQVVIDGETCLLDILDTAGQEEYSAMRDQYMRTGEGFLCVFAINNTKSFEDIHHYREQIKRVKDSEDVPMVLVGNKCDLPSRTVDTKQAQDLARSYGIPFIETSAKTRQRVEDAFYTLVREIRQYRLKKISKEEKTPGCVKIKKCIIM

[4] = test system: human lung cancer strain NCI-H441; experiment: cells; details: NCI-H441, 96 h, read-out: NCI-H441 IC50 (nM), NCI-H441 cell proliferation, 4 days, CellTiter-Glo;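 also: cell proliferation inhibition after four days measured by CellTiter-Glo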

| Compound | HRAS/KRAS (KD ratio) [1] | NRAS/KRAS (KD ratio) [2] | Kd [3] | IC50 [4] |
| --- | --- | --- | --- | --- |
| CCCOC[C@H]1C(=O)N[C@@H]([C@@H](C)CC)C(=O)N(C)CC(=O)N(C)[C@H]2C/C=C\CCN(C2=O)[C@@H](Cc2ccc(C(F)(F)F)cc2)C(=O)N(C)CC(=O)N[C@@H](CCc2cc(F)c(C(F)(F)F)c(F)c2)C(=O)N2CC(F)(F)C[C@H]2C(=O)NC2(CC(C)(C)C2)C(=O)N(C)[C@@H](C2CCCC2)C(=O)N(C)[C@H](C(=O)N(C)C)CC(=O)N1C [PP1718] | A (a compound having 10 or more and less than 20 is denoted as A) | AA (a compound having 20 or more is denoted as AA) | 0.067 nM | 2.5 nM |
| CCC[C@H]1C(=O)N[C@@H]([C@@H](C)CC)C(=O)N(C)CC(=O)N(C)[C@H]2C/C=C\CCN(C2=O)[C@@H](Cc2ccc(C(F)(F)F)cc2)C(=O)N(C)CC(=O)N[C@@H](CCc2cc(F)c(C(F)(F)F)c(F)c2)C(=O)N(CC)CC(=O)NC2(CC(C)(C)C2)C(=O)N(C)[C@@H](C2CCCC2)C(=O)N(C)[C@H](C(=O)N(C)C)CC(=O)N1C [PP1777] | B (a compound having 3 or more and less than 10 is denoted as B) | A (a compound having 10 or more and less than 20 is denoted as A) | 0.36 nM | 79.3 nM |
| CCCN(C)C(=O)[C@@H]1CC(=O)N(C)[C@@H](CC2CC2)C(=O)N[C@@H]([C@@H](C)CC)C(=O)N(C)CC(=O)N(C)[C@H]2C/C=C\CCN(C2=O)[C@@H](Cc2ccc(C(F)(F)F)cc2)C(=O)N(C)CC(=O)N[C@@H](CCc2cc(F)c(C(F)(F)F)c(F)c2)C(=O)N2C[C@H](F)C[C@H]2C(=O)NC2(CC(C)(C)C2)C(=O)N(C)[C@@H](C2CCCC2)C(=O)N1C [PP1665] | A (a compound having 10 or more and less than 20 is denoted as A) | AA (a compound having 20 or more is denoted as AA) | 0.066 nM | 3.1 nM |
| CCO[C@@H]1C[C@H]2C(=O)NC3(CC(C)(C)C3)C(=O)N(C)[C@@H](C3CCCC3)C(=O)N(CC)[C@H](C(=O)N(C)C)CC(=O)N(C)[C@@H](CC(C)C)C(=O)N[C@@H]([C@@H](C)CC)C(=O)NCC(=O)N(C)[C@H]3C/C=C\CCN(C3=O)[C@@H](Cc3ccc(C(F)(F)F)cc3)C(=O)N(C)CC(=O)N[C@@H](CCc3cc(F)c(C(F)(F)F)c(F)c3)C(=O)N2C1 [PP1773] | A (a compound having 10 or more and less than 20 is denoted as A) | A (a compound having 10 or more and less than 20 is denoted as A) | 0.53 nM | 39.9 nM |
| CC[C@H](C)[C@@H]1NC(=O)[C@H](CC(F)(F)F)N(C)C(=O)C[C@@H](C(=O)N(C)C)N(C)C(=O)[C@H](C2CCCC2)N(C)C(=O)C2(CC(C)(C)C2)NC(=O)[C@@H]2CC(F)(F)CN2C(=O)[C@H](CCc2cc(F)c(C(F)(F)F)c(F)c2)NC(=O)CN(C)C(=O)[C@H](Cc2ccc(C(F)(F)F)cc2)N2CC/C=C\C[C@@H](C2=O)N(C)C(=O)CN(C)C1=O [PP1710] | B (a compound having 3 or more and less than 10 is denoted as B) | A (a compound having 10 or more and less than 20 is denoted as A) | 0.1 nM | 4.1 nM |
| CCC[C@H]1C(=O)N[C@@H]([C@@H](C)CC)C(=O)N(C)CC(=O)N(C)CC(=O)N(CCC)[C@@H](Cc2ccc(C(F)(F)F)cc2)C(=O)N(C)CC(=O)N[C@@H](CCc2ccc(C(F)(F)F)c(Cl)c2)C(=O)N2CCC[C@H]2C(=O)NC2(CCC2)C(=O)N(C)[C@@H](C2CCCC2)C(=O)N(CCC)[C@H](C(=O)N2CCOCC2)CC(=O)N1C [PP1954] ([NMeNva]I[Sar][Sar][NPrPhe(4-CF3)][Sar][hPhe(3-Cl-4-CF3)]P[Ac4c][NMeGly(cPent)][NPrAsp]-Morpholide; lactam N-11) | B (a compound having 3 or more and less than 10 is denoted as B) | B (a compound having 3 or more and less than 10 is denoted as B) | 0.77 nM | 8.1 nM |
| CC[C@H](C)[C@@H]1NC(=O)[C@H](CC)N(C)C(=O)C[C@@H](C(=O)N(CC)CC)N(C)C(=O)[C@H](C2CCCC2)N(C)C(=O)C2(CC(C)(C)C2)NC(=O)[C@@H]2C[C@@H](C)CN2C(=O)[C@H](CCc2ccc(C(F)(F)F)c(OC)c2)NC(=O)CN(C)C(=O)[C@H](Cc2ccc(C)cc2)N2CC/C=C\C[C@@H](C2=O)N(C)C(=O)CN(C)C1=O [PP1841] | A (a compound having 10 or more and less than 20 is denoted as A) | AA (a compound having 20 or more is denoted as AA) | 0.38 nM | 24.3 nM |
| CCO[C@@H]1C[C@H]2C(=O)NC3(CC(C)(C)C3)C(=O)N(C)[C@@H](C(CC)CC)C(=O)N(C)[C@H](CC)CC(=O)N(C)[C@@H](CC3CC3)C(=O)N[C@@H]([C@@H](C)CC)C(=O)N(C)CC(=O)N(C)[C@H]3C/C=C\CCN(C3=O)[C@@H](Cc3ccc(C(F)(F)F)cc3)C(=O)N(C)CC(=O)N[C@@H](CCc3cc(F)c(C(F)(F)F)c(F)c3)C(=O)N2C1 [PP1628] | A (a compound having 10 or more and less than 20 is denoted as A) | A (a compound having 10 or more and less than 20 is denoted as A) | 2.5 nM | 150 nM |
| CCC[C@H]1C(=O)N[C@@H]([C@@H](C)CC)C(=O)N(C)CC(=O)N(C)[C@H]2C/C=C\CCN(C2=O)[C@@H](Cc2ccc(C(F)(F)F)cc2)C(=O)N(C)CC(=O)N[C@@H](CCc2cc(F)c(C(F)(F)F)c(F)c2)C(=O)N2C[C@H](OCC)C[C@H]2C(=O)NC2(CC(C)(C)C2)C(=O)N(C)[C@@H](C2CCCC2)C(=O)N(C)[C@H](C(=O)N(C)C)CC(=O)N1C [PP1645] | A (a compound having 10 or more and less than 20 is denoted as A) | A (a compound having 10 or more and less than 20 is denoted as A) | 0.04 nM | 1.8 nM |
| CC[C@H](C)[C@@H]1NC(=O)[C@H](CC(C)C)N(C)C(=O)C[C@@H](C(=O)N(C)C)N(C)C(=O)[C@H](C2CCCC2)N(C)C(=O)C2(CCC2)NC(=O)[C@@H]2C[C@H](C)CN2C(=O)[C@H](CCc2cc(F)c(C(F)(F)F)c(F)c2)NC(=O)CN(C)C(=O)[C@H](Cc2ccc(C)cc2)N2CC/C=C\C[C@@H](C2=O)N(C)C(=O)CN(C)C1=O [PP1864] | B (a compound having 3 or more and less than 10 is denoted as B) | A (a compound having 10 or more and less than 20 is denoted as A) | 0.064 nM | 10.2 nM |
| CCC[C@H]1C(=O)N[C@@H]([C@@H](C)CC)C(=O)N(C)CC(=O)N(C)[C@H]2C/C=C\CCN(C2=O)[C@@H](Cc2ccc(C)cc2)C(=O)N(C)CC(=O)N[C@@H](CCc2ccc(C(F)(F)F)c(Cl)c2)C(=O)N2C[C@H](OCC)C[C@H]2C(=O)NC2(CC(C)(C)C2)C(=O)N(C)[C@@H](C2CCCC2)C(=O)N(C)[C@H](C(=O)N(C)C)CC(=O)N1C [PP1896] | B (a compound having 3 or more and less than 10 is denoted as B) | A (a compound having 10 or more and less than 20 is denoted as A) | 0.06 nM | 5.3 nM |
| CCCOC[C@H]1C(=O)N[C@@H]([C@@H](C)CC)C(=O)N(C)CC(=O)N(C)[C@H]2C/C=C\CCN(C2=O)[C@@H](Cc2ccc(C(F)(F)F)cc2)C(=O)N(C)CC(=O)N[C@@H](CCc2ccc(C(F)(F)F)c(OC)c2)C(=O)N2C[C@H](OCC)C[C@H]2C(=O)NC2(CCC2)C(=O)N(C)[C@@H](C2CCCC2)C(=O)N(C)[C@H](C(=O)N(C)CC)CC(=O)N1C [PP2016] | A (a compound having 10 or more and less than 20 is denoted as A) | A (a compound having 10 or more and less than 20 is denoted as A) | 0.11 nM | 8.2 nM |
| CCO[C@@H]1C[C@H]2C(=O)NC3(CC(C)(C)C3)C(=O)N(C)[C@@H](C3CCCC3)C(=O)N3CCC[C@@H]3CC(=O)N(C)[C@@H](CC3CC3)C(=O)N[C@@H]([C@@H](C)CC)C(=O)N(C)CC(=O)N(C)[C@H]3C/C=C\CCN(C3=O)[C@@H](Cc3ccc(C(F)(F)F)cc3)C(=O)N(C)CC(=O)N[C@@H](CCc3cc(F)c(C(F)(F)F)c(F)c3)C(=O)N2C1 [PP1611] | B (a compound having 3 or more and less than 10 is denoted as B) | B (a compound having 3 or more and less than 10 is denoted as B) | 1.3 nM | 28 nM |
| CCCN1C(=O)CN(C)C(=O)CNC(=O)[C@H]([C@@H](C)CC)NC(=O)[C@H](CC(C)C)N(C)C(=O)C[C@@H](C(=O)N2CCOCC2)N(CC)C(=O)[C@H](C2CCCC2)N(C)C(=O)C2(CCCC2)NC(=O)[C@@H]2CCCN2C(=O)[C@H](CCc2ccc(C(F)(F)F)c(Cl)c2)NC(=O)CN(C)C(=O)[C@@H]1Cc1ccc(C(F)(F)F)cc1 [PP1970] ([NMeL]IG[Sar][NPrPhe(4-CF3)][Sar][hPhe(3-Cl-4-CF3)]P[Ac5c][NMeGly(cPent)][NEtAsp]-Morpholide; lactam N-11) | B (a compound having 3 or more and less than 10 is denoted as B) | B (a compound having 3 or more and less than 10 is denoted as B) | 0.62 nM | 16.8 nM |
